# According to patent publication US7022711B2, “2-(4-Pyridyl)amino-6-dialkoxyphenyl-pyrido[2,3-d]pyrimidin-7-ones” (Warner-Lambert Company, priority 2000, dated 2006):
# Key:
# Lck = molecular target: T1, Lck (Homo sapiens, UniProt P06239); assay: Kinase inhibition assay (DELFIA), Lck; assay type: biochemical; settings: 40 μM ATP, kinase domain 20 nM
# T1 construct: The kinase domains from FGFR-1, VEGFR-2, Lck, and PDGF were purified from baculoviral vectors expression systems; made in house
# Description: (§1) The inhibition activity of the compounds in Examples 8, 9, 10, 11, and 12 and Reference Compounds A and B were evaluated using the Dissociated Enhanced Lanthanide Fluoroimmuno Assay (DELFIA) (Frank Loganzo and Carolyn Hardy. A sensitive, time-resolved fluorometric assay for the detection of inhibitors of phosphotyrosine kinases. American Biotechnology Laboratory, December 1998). DELFIA plates (EG&G Wallac, Gaithersburg, Md.) were coated overnight with Poly Glu Tyr (4:1) (Sigma, St. Louis, Mo.) at room temperature, washed (DELFIA wash reagent, EG&G Wallac), and spotted with 1 μL inhibitor dilution or DMSO carrier control per well. In some cases, kinase was autophosphorylated prior to analysis by incubating 45 minutes at 4° C. in the presence of 4 mM ATP and 25 mM MgCl2. A typical 100 μL kinase assay reaction contained 20 mM Tris (pH 7.5), 20 mM MgCl2, 50 mM NaCl, 5 mM DTT, and protease inhibitors (Mini EDTA-free protease inhibitor cocktail tablets, Boehringer Mannheim, Indianapolis, Ind.), 40 μM ATP, and an appropriate concentration of inhibitor. The reaction was allowed to continue for 30 minutes at room temperature. Plates were washed, blocked 30 minutes at room temperature (0.5% bovine serum albumin in DELFIA Assay Buffer, EG&G Wallac), and washed. One hundred microliter europium-conjugated antiphosphotyrosine antibody in DELFIA assay buffer was added to each well. Plates were incubated for 1 hour and decanted. One hundred microliter DELFIA enhancement solution (EG&G Wallac) was added and time-resolved fluorescence of the reactions determined using a VICTOR2 1420 multilable counter (EG&G Wallac). Compounds were tested from 10 through 0.0001 μM. c-Src was (Upstate Biotechnology, Lake Placid, N.Y.) was used at 3 units per reaction. The kinase domains from FGFR-1, VEGFR-2, Lck, and PDGF were purified from baculoviral vectors expression systems and were used in the assays at 20 nM.
# PDGFR = molecular target: T2, PDGFR (Mus musculus, UniProt P05622); assay: Kinase inhibition assay (DELFIA), PDGF; assay type: biochemical; settings: 40 μM ATP, kinase domain 20 nM
# T2 construct: The kinase domains from FGFR-1, VEGFR-2, Lck, and PDGF were purified from baculoviral vectors expression systems and were used in the assays at 20 nM
# Description: as §1, with “Plates were washed, blocked 30 minutes at room temperature (0.5% bovine serum albumin in DELFIA Assay Buffer, EG&G Wallac), and washed. One hundred microliter europium-conjugated antiphosphotyrosine antibody in DELFIA assay buffer was added to each well. Plates were incubated for 1 hour and decanted.” left out, “Compounds were tested from 10 through 0.0001 μM. c-Src was (Upstate Biotechnology, Lake Placid, N.Y.) was used at 3 units per reaction. The kinase domains from FGFR-1, VEGFR-2, Lck, and PDGF were purified from baculoviral vectors expression systems and were used in the assays at 20 nM.” left out
# [1] = system: Mammary Adenocarcinoma M16/C; assay: Antitumor activity in vivo, M16/C mammary tumor model; settings: for CRs, complete regression / T-C (Days), tumor growth delay to 750 mg / T/C (%), median treated tumor mass/median control tumor mass / NSD, nonspecific deaths/total in treatment group: D7-15; for T/C (%), median treated tumor mass/median control tumor mass: 3 days after the end of therapy
# Description: The anticancer efficacy of the compound of Example 8 was evaluated using a murine mammary […] tumor model, M16/C. This highly vascularized tumor is very aggressive with a doubling time of 1.5 days. Tumor fragments were implanted by trocar fragment in the right axilla of C3H mice on Day 0. The efficacy of treatment was assessed both in an advanced stage model (test compound treatment for nine consecutive days after tumors had reached 100 mg). The compound in Example 8 was dosed once a day over the treatment period by oral gavage in 0.05 M sodium lactate buffer, pH 4. Animals were allowed to continue off therapy until the tumors reached the evaluable size (750 mg). Animal weights were determined throughout the study to provide an estimate of test compound toxicity. A mean weight loss >10% (3–4 g) for any treatment group is an indication of host toxicity. Anticancer activity was evaluated using two methods. The first is %T/C where T=median mass of treated tumors 3 days after the end of therapy, and C=median mass of the control group at that same time point. The highest degree of antitumor activity using this assessment occurs when T=0, and %T/C=0%. […] The second method uses tumor growth delay (T−C), where T=the days for the median treated tumor to reach an evaluable size (750 mg), and C=days for control tumors to reach that same size.
# [2] = system: VEGFR-2 and FGFR-1 compared to PDGFR, Lck, and c-Src; assay: Kinase selectivity comparison across the kinase inhibition assays; assay type: biochemical; settings: compared with reference Compounds A and B
# From the text: The invention compounds have been evaluated in the in vitro biological assays described in U.S. Pat. No. 5,733,914. […] Reference Compound A has a 2,6-dichloro phenyl group at the 6-position. Reference Compound B has a 3,5-dimethoxyphenyl group at the 6-position and a substituted phenylamino at the 2-position. The invention compound of Example 8 has the required 3,5-dimethoxyphenyl at the 6-position and the required (4-pyridyl)amino at the 2-position. The structures are shown in Table 1, along with their respective inhibitory activities against various tyrosine kinases, when evaluated in the models described in U.S. Pat. No. 5,733,914.
# The preferred kinase selectivity profile of the compound in Example 8 is shared by the other representative compounds of the invention shown in Table 2. The inhibition activity of the compounds in Examples 8, 9, 10, 11, and 12 and Reference Compounds A and B were evaluated using the Dissociated Enhanced Lanthanide Fluoroimmuno Assay (DELFIA) (Frank Loganzo and Carolyn Hardy. A sensitive, time-resolved fluorometric assay for the detection of inhibitors of phosphotyrosine kinases. American Biotechnology Laboratory, December 1998). […] One hundred microliter DELFIA enhancement solution (EG&G Wallac) was added and time-resolved fluorescence of the reactions determined using a VICTOR2 1420 multilable counter (EG&G Wallac). […]
# T2 sequence (P05622 553-1098): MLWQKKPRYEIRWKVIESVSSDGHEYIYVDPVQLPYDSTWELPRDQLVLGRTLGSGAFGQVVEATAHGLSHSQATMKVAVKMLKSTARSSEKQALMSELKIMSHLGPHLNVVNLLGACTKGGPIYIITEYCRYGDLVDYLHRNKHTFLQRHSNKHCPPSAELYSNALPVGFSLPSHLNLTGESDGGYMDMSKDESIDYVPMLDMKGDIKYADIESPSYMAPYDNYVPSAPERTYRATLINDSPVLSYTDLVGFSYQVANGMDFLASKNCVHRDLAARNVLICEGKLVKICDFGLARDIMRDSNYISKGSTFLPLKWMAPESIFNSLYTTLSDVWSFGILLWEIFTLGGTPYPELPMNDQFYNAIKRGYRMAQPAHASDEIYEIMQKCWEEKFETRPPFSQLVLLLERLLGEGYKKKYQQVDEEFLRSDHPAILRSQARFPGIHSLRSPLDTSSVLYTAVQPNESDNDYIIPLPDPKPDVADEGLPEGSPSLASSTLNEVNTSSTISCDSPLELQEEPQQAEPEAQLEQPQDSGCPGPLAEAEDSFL
# T1 sequence (P06239 245-498 limits assumed, species assumed): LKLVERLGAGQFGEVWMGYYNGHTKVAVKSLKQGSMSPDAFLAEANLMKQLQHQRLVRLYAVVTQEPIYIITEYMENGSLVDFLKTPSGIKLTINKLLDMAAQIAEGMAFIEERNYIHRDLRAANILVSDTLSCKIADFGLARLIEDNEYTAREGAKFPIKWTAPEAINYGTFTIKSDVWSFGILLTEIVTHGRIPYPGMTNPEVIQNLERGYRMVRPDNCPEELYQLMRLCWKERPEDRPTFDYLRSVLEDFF
substance,measurement,setting,value
"6-(3,5-Dimethoxy-phenyl)-8-ethyl-2-(pyridin-4-ylamino)-8H-pyrido[2,3-d]pyrimidin-7-one [Example 8]",Ki,Lck,1.79 µM
same,IC50,PDGFR,2.54 µM
same,"CRs, complete regression","[1]; 5 mg/kg, oral",0/6
same,"T-C (Days), tumor growth delay to 750 mg","[1]; 5 mg/kg, oral",4.3 days
same,"T/C (%), median treated tumor mass/median control tumor mass","[1]; 5 mg/kg, oral",39%
same,"NSD, nonspecific deaths/total in treatment group","[1]; 10 mg/kg, oral",0/6
same,"T-C (Days), tumor growth delay to 750 mg","[1]; 10 mg/kg, oral",7.9 days
same,"T/C (%), median treated tumor mass/median control tumor mass","[1]; 10 mg/kg, oral",15%
same,"CRs, complete regression","[1]; 20 mg/kg, oral",4/6
same,"NSD, nonspecific deaths/total in treatment group","[1]; 20 mg/kg, oral",0/6
same,"T-C (Days), tumor growth delay to 750 mg","[1]; 20 mg/kg, oral",10.7 days
same,"T/C (%), median treated tumor mass/median control tumor mass","[1]; 20 mg/kg, oral",0%
same,"CRs, complete regression","[1]; 40 mg/kg, oral",6/6
same,"NSD, nonspecific deaths/total in treatment group","[1]; 40 mg/kg, oral",0/6
same,"T-C (Days), tumor growth delay to 750 mg","[1]; 40 mg/kg, oral",12.4 days
same,"T/C (%), median treated tumor mass/median control tumor mass","[1]; 40 mg/kg, oral",0%
same,regression of tumors below the level of palpation,[1]; 40 and 20 mg/kg dose levels,complete regressions
same,tumor growth delay (T−C) relative to duration of therapy,[1]; 40 and 20 mg/kg dose levels,greater than the duration of therapy
same,anticancer activity (%T/C),[1]; all four doses tested,meaningful anticancer activity
same,tolerability,"[1]; all four doses tested, oral, nine consecutive days",well-tolerated
same,"selectivity for VEGFR-2 and FGFR-1 compared to PDGFR, Lck, and c-Src",[2],more selective
